Test results from patent EP0354693A1, “Therapeutic agents” (The Boots Company PLC, priority 1988, dated 1990).

test system: BALB/c mice; assay: cutaneous hypersensitivity test (CH test), oxazolone-induced ear swelling; type: in vivo; settings: Mus musculus, ip; intraperitoneal, at sensitisation and every 24 hours for a further 7 days; lowest dose used giving 20% or greater reduction in ear swelling (p <0.05) in two out of three CH tests; read-out: Minimum Effective Dose
Method: This test was carried out in the following way.
Female BALB/c mice, weight range 16-24 g, were used in groups of eight. The abdomen of each mouse was shaved and 20 µl of a solution of a sensitising agent, 5% w/v 4-ethoxymethylene-2-phenyl-2-oxazolin-5-one (oxazolone) in acetone:ethanol (1:1 by volume), was applied to the shaved area. Immediately after sensitisation, the test compound in one of the dosages listed below was injected intraperitoneally as a suspension in 1.5% v/v sorbitan esters, under the trade name Tween 80, in sterile water (100µl). 100 µl of the same suspension was injected likewise every 24 hours for a further 7 days. The dosages used were selected from the following values: 50, 30, 10, 3, 1, 0.3, 0.1, 0.03 or 0.01 mg/kg.
Two groups of eight BALB/c mice were used as a control simultaneously with each test in a similar manner to that described above except that no test compound was included in the daily injections.
On the seventh day after sensitisation, 10 µl of a solution of 1% w/v oxazolone in acetone: olive oil (either 1:1 or 3:1 by volume) was applied to one ear (the challenged ear) of each of the test mice and the control mice. After 24 hours the thickness of the challenged ear and the thickness of the non-challenged ear of the same animal were measured with an engineer's screw gauge micrometer. The difference in thickness between the challenged ear and the non-challenged ear in each animal is a measure of the response of that animal to oxazolone. A comparison between the response of mice treated with the test compound and mice treated with the control indicates the effectiveness of the test compound as an immunomodulatory agent. The compounds were considered to be active at a particular dose if a 20% or greater reduction in ear swelling, which was statistically significant (p <0.05) according to Dunnett's test, between treated and control groups was obtained in two out of three CH tests, (or, where more than three tests have been carried out, a majority of the tests) at that dose (see for example Int. Arch. Allergy, 38, p246-259 (1970)).
Each of the compounds of formula I illustrated in Table A below was active at 50 mg/kg in two out of three tests at 50 mg/kg unless indicated otherwise (see Notes following the Table). The minimum effective dose (ie the lowest dose of those used at which the compound is active as defined above) for each compound is given in Table A. The Example (Ex) number or numbers listed adjacent to each compound indicates the process or processes illustrating the preparation of that compound in the Examples.

Point of comparison: `Cc1oc2ccc(Cl)cc2c2nn(-c3ccc(Cl)cc3)c(=O)c1-2` [Example 49, 8-chloro-2-(4-chlorophenyl)-4-methyl-[1]benzopyrano[4,3-c]pyrazol-3(2H)-one], minimal effective dose 50 mg/kg. Against it:
- Cc1oc2ccc(F)cc2c2nn(-c3ccc(Cl)cc3)c(=O)c1-2 [Example 54, 2-(4-chlorophenyl)-8-fluoro-4-methyl-[1]benzopyrano[4,3-c]pyrazol-3(2H)-one] — 500-fold lower, 0.1 mg/kg
- Cc1oc2ccccc2c2nn(-c3ccc(Br)cc3)c(=O)c1-2 [Example 44, 2-(4-bromophenyl)-4-methyl[1]benzo-pyrano[4,3-c]pyrazol-3(2H)-one] — 50-fold lower, 1 mg/kg
- Cc1ccc2oc(C)c3c(=O)n(-c4ccc(Cl)cc4)nc-3c2c1 [Example 50, 2-(4-chlorophenyl)-4,8-dimethyl[1]-benzopyrano[4,3-c]pyrazol-3(2H)-one] — the same, 50 mg/kg
- CCOC(=O)Cc1oc2ccccc2c2nn(-c3ccc(Cl)cc3)c(=O)c1-2 [Example 41, ethyl 2-(4-chlorophenyl)-3-oxo-2,3-dihydro[1]benzopyrano[4,3-c]pyrazole-4-acetate] — 17-fold lower, 3 mg/kg
- CCc1oc2ccccc2c2nn(-c3ccc(Cl)cc3)c(=O)c1-2 [Example 40, 2-(4-chlorophenyl)-4-ethyl[1]benzo-pyrano[4,3-c]pyrazol-3(2H)-one] — the same, 50 mg/kg
- Cc1oc2ccccc2c2nn(-c3ccc(C(F)(F)F)cc3)c(=O)c1-2 [Example 47, 4-methyl-2-(4-trifluoromethylphenyl)-[1]benzopyrano[4,3-c]pyrazol-3(2H)-one] — 50-fold lower, 1 mg/kg
- COc1cccc2oc(C)c3c(=O)n(-c4ccc(Cl)cc4)nc-3c12 [Example 51, 2-(4-chlorophenyl)-9-methoxy-4-methyl-[1]benzopyrano[4,3-c]pyrazol-3(2H)-one] — the same, 50 mg/kg
- COc1ccc(-n2nc3c4ccccc4oc(C)c-3c2=O)cc1 [Example 39, 2-(4-methoxyphenyl)-4-methyl[1]benzo-pyrano[4,3-c]pyrazol-3(2H)-one] — the same, 50 mg/kg
- Cc1oc2ccccc2c2nn(-c3ccc(F)c(Cl)c3)c(=O)c1-2 [Example 45, 2-(3-chloro-4-fluorophenyl)-4-methyl-[1]benzopyrano[4,3-c]pyrazol-3(2H)-one] — 170-fold lower, 0.3 mg/kg
- Cc1oc2ccccc2c2nn(-c3ccc(F)cc3)c(=O)c1-2 [Example 37, 2-(4-fluorophenyl)-4-methyl[1]benzo-pyrano[4,3-c]pyrazol-3(2H)-one] — 50-fold lower, 1 mg/kg
- Cc1oc2ccc(O)cc2c2nn(-c3ccc(Cl)cc3)c(=O)c1-2 [Example 56, 2-(4-chlorophenyl)-8-hydroxy-4-methyl-[1]benzopyrano[4,3-c]pyrazol-3(2H)-one] — the same, 50 mg/kg
- Cc1oc2ccccc2c2nn(-c3cccc(Cl)c3)c(=O)c1-2 [Example 38, 2-(3-chlorophenyl)-4-methyl[1]benzo-pyrano[4,3-c]pyrazol-3(2H)-one] — 17-fold lower, 3 mg/kg
- Cc1ccc(-n2nc3c4ccccc4oc(C)c-3c2=O)cc1 [Example 43, 4-methyl-2-(4-methylphenyl)[1]benzo-pyrano[4,3-c]pyrazol-3(2H)-one] — 5-fold lower, 10 mg/kg
- Cc1oc2cccc(C)c2c2nn(-c3ccc(Cl)cc3)c(=O)c1-2 [Example 52, 2-(4-chlorophenyl)-4,9-dimethyl[1]-benzopyrano[4,3-c]pyrazol-3(2H)-one] — the same, 50 mg/kg
- Cc1oc2ccccc2c2nn(-c3ccc(Cl)c(Cl)c3)c(=O)c1-2 [Example 36, 2-(3,4-dichlorophenyl)-4-methyl[1]-benzopyrano[4,3-c]pyrazol-3(2H)-one] — 170-fold lower, 0.3 mg/kg
- Cc1oc2cc(F)ccc2c2nn(-c3ccc(Cl)cc3)c(=O)c1-2 [Example 48, 2-(4-chlorophenyl)-7-fluoro-4-methyl-[1]benzopyrano[4,3-c]pyrazol-3(2H)-one] — the same, 50 mg/kg
- Cc1ccc(-n2nc3c4ccccc4oc(C)c-3c2=O)cc1Cl [Example 46, 2-(3-chloro-4-methylphenyl)-4-methyl-[1]benzopyrano[4,3-c]pyrazol-3(2H)-one] — 17-fold lower, 3 mg/kg
- Cc1oc2cc(Cl)ccc2c2nn(-c3ccc(Cl)cc3)c(=O)c1-2 [Example 55, 7-chloro-2-(4-chlorophenyl)-4-methyl-[1]benzopyrano[4,3-c]pyrazol-3(2H)-one] — the same, 50 mg/kg
- CCOC(=O)Cc1oc2ccccc2c2nn(-c3ccc(F)cc3)c(=O)c1-2 [Example 53, ethyl 2-(4-fluorophenyl)-3-oxo-2,3-dihydro[1]benzopyrano[4,3-c]pyrazole-4-acetate] — 17-fold lower, 3 mg/kg
- Cc1oc2ccccc2c2nn(-c3ccccc3)c(=O)c1-2 [Example 42, 4-methyl-2-phenyl[1]benzopyrano-[4,3-c]pyrazol-3(2H)-one] — the same, 50 mg/kg
